Source: US20210317092A1 (BAYER PHARMA AKTIENGESELLSCHAFT, priority 2016, published 2021)

target: T1, human Bradykinin B1 receptor (Homo sapiens, UniProt P46663); test: Calcium flux Assay (FLIPR) with recombinant CHO-K1 cells expressing human Bradykinin B1 receptor, in presence (hB1 IC50) or absence (hB1 free IC50) of 0.1% BSA; format: cell-based; conditions: in absence of 0.1% BSA, read-out: hB1 free IC50
T1 construct: host or cells: CHO-K1
T1 sequence (P46663 1-353): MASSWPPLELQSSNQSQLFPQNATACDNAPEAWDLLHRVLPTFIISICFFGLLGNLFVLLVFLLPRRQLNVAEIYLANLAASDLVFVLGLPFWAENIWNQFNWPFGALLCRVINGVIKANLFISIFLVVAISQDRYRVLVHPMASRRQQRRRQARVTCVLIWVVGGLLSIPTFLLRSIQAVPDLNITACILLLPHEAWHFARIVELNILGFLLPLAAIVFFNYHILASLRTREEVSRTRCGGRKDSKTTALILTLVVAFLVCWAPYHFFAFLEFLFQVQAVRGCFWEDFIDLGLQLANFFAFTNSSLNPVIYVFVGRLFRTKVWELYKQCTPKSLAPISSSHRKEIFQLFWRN
Method: The potency to inhibit the Bradykinin B1 receptor was determined for the compounds of this invention in a cell-based fluorescent calcium-mobilisation assay. The assay measures the ability of test compounds to inhibit Bradykinin B1 receptor agonist-induced increase of intracellular free Ca^2+ in the cell line expressing Bradykinin B1 receptor. […] The change of the intracellular Ca^2+ concentration is monitored with a fluorescent plate reader FLIPR TETRA® (Molecular Devices).
Calcium flux Assays (FLIPR) with cells expressing human Bradykinin B1 receptor (hB1)
CHO-K1 cell line expressing human Bradykinin B1 receptor was purchased from Euroscreen (Gosselies, Belgium, with reference name hB1-D1). The cells were grown in Nutrient Mixture Ham's F12 (Sigma) containing 10% Foetal bovine serum (Sigma) and 400 μg/mL G418 (Sigma), 5 μg/mL puromycim (Sigma). […]
Cells were seeded in a volume of 50 μL in medium without antibiotics and incubated overnight in a humidified atmosphere with 5% CO2 at 37° C. […] The calcium indicator loaded cells were incubated at 37° C. for 2 hrs. Extracellular dye was then removed and each well was filled with 45 μL of assay buffer. Cell plates were kept in dark until used. Compound examples were assayed at 8 concentrations in triplicate. Serial 10-fold dilutions in 100% DMSO were made at a 100-times higher concentration than the final concentration, and then diluted 1:10 in assay buffer. 5 μL of each diluted compound was added to the well of cell plates (yielding final concentration with 1% DMSO), and incubated for 30 min at 28° C. before the addition of Bradykinin B1 receptor agonist on the FLIPR instrument.
A peptide antagonist Lys-(Des-Arg-Leu)-Bradykinin (Bachem, Brackley) at 20 µM was used to determine the full inhibition as control.
Peak fluorescence was used to determine the response to agonist obtained at each concentration of compound examples by the following equation:
% Response=100*(RFU(compound)−RFU(control))/(RFU(DMSO)−RFU(control)) • RFU means relative fluorescence units. • Control means full inhibition by the peptide antagonist Lys-(Des-Arg-Leu)-Bradykinin at 20 µM.
The response values were plotted against the logarithm of the compound concentrations. The compound examples were tested in triplicates per plate and mean values were plotted in Excel XLfit to determine IC50 values, percentage of maximal inhibition and the Hill slopes.

Going from `N#Cc1ccc(-c2ccc(NC(=O)C3(c4cccc(Cl)c4)CC3)cc2-c2nnn[nH]2)cc1F` [Example 186, 1-(3-chlorophenyl)-N-[4′-cyano-3′-fluoro-2-(1H-tetrazol-5-yl)biphenyl-4-yl]cyclopropane carboxamide] to `Cc1ncc(-c2ccc(NC(=O)C3(c4cccc(Cl)c4)CC3)cc2-c2nnn[nH]2)cn1` [Example 194, 1-(3-chlorophenyl)-N-[4-(2-methylpyrimidin-5-yl)-3-(1H-tetrazol-5-yl)phenyl] cyclopropane-carboxamide], the IC50 rises from 252 nM to 569 nM (2.3-fold).

Going from `Cc1nc(C(F)(F)F)nn1-c1ccc(NC(=O)C2(c3ccc(F)c(F)c3)CC2)cc1-c1nnn[nH]1` [Example 360, 1-(3,4-difluorophenyl)-N-{4-[5-methyl-3-(trifluoromethyl)-1H-1,2,4-triazol-1-yl]-3-(1H-tetrazol-5-yl)phenyl}cyclopro-panecarboxa-mide] to `CC(C)(C)c1cn(-c2ccc(NC(=O)C3(c4ccc(F)c(F)c4)CC3)cc2-c2nnn[nH]2)cn1` [Example 401, N-[4-(4-tert-butyl-1H-imidazol-1-yl)-3-(1H-tetrazol-5-yl)phenyl]-1-(3,4-difluorophenyl)cy-clopropanecar-boxamide], the IC50 falls from 1700 nM to 34.5 nM (49-fold). The second is the more potent here.

First: COc1ncccc1-c1ccc(NC(=O)C2(c3cccc(Cl)c3)CC2)cc1-c1nnn[nH]1 [Example 187, 1-(3-chlorophenyl)-N-[4-(2-methoxypyridin-3-yl)-3-(1H-tetrazol-5-yl)phenyl] cyclopropane-carboxamide]
Second: CCOc1ccc(-c2ccc(NC(=O)C3(c4ccccc4Cl)CC3)cc2-c2nnn[nH]2)cn1 [Example 93, 1-(2-chlorophenyl)-N-[4-(6-ethoxypyridin-3-yl)-3-(1H-tetrazol-5-yl)phenyl] cyclopropane-carboxamide]
The IC50 of the first is 41-fold higher: 1620 nM for the first, 39.3 nM for the second. The second is the more potent here.

First: O=C(Nc1ccc(-c2cnc(C(F)(F)F)nc2)c(-c2nnn[nH]2)c1)C1(c2ccc(OC(F)(F)F)cc2)CC1 [Example 198, N-{3-(1H-tetrazol-5-yl)-4-[2-(trifluoromethyl)pyrimidin-5-yl]phenyl}-1-[4-(trifluoromethoxy)phenyl] cyclopropane-carboxamide]
Second: O=C(Nc1ccc(-c2ccc(C(F)F)nc2)c(-c2nnn[nH]2)c1)C1(c2ccc(F)cc2)CC1 [Example 268, N-{4-[6-(difluoromethyl)pyridin-3-yl]-3-(1H-tetrazol-5-yl)phenyl}-1-(4-fluorophenyl)cy-cloproapnecarbox-amide]
The IC50 of the first is 10-fold higher: 943 nM for the first, 92 nM for the second. The second is the more potent here.

First: O=C(Nc1ccc(-c2ccnc(C(F)(F)F)c2)c(-c2nnn[nH]2)c1)C1(c2ccc(Cl)c(F)c2)CC1 [Example 177, 1-(4-chloro-3-fluorophenyl)-N-{3-(1H-tetrazol-5-yl)-4-[2-(trifluoromethyl)pyridin-4-yl]phenyl} cyclopropane-carboxamide]
Second: CCOc1ccc(-c2ncc(NC(=O)C3(c4ccc(C(F)(F)F)cc4F)CC3)cc2-c2nnn[nH]2)cn1 [Example 219, N-[6′-ethoxy-3-(1H-tetrazol-5-yl)-2,3′-bipyridin-5-yl]-1-[2-fluoro-4-(trifluoromethyl)phenyl] cyclopropane-carboxamide]
The IC50 of the first is 3.2-fold higher: 274 nM for the first, 86.8 nM for the second. The second is the more potent here.

Going from `O=C(Nc1ccc(-n2cnc(C(F)(F)F)n2)c(-c2nnn[nH]2)c1)C1(c2ccc(C(F)(F)F)cc2F)CC1` [Example 412, 1-[2-fluoro-4-(trifluoromethyl)phenyl]-N-{3-(1H-tetrazol-5-yl)-4-[3-(trifluoromethyl)-1H-1,2,4-triazol-1-yl]phenyl}cyclopro-panecarboxa-mide] to `O=C(Nc1ccc(-n2cc(C(F)(F)F)cn2)c(-c2nnn[nH]2)c1)C1(c2ccc(C(F)(F)F)cc2F)CC1` [Example 345, 1-[2-Fluoro-4-(trifluoromethyl)phenyl]-N-{3-(1H-tetrazol-5-yl)-4-[4-(trifluoromethyl)-1H-pyrazol-1-yl]phenyl}cyclopropanecarboxamide], the IC50 falls from 504 nM to 28.5 nM (18-fold). The second is the more potent here.

same assay, conditions: in presence of 0.1% BSA, read-out: hB1 IC50

`COc1ccc(-c2ccc(NC(=O)C3(c4cccc(C)c4)CC3)cc2-c2nnn[nH]2)cc1OC` [Example 39, N-[3′,4′-dimethoxy-2-(1H-tetrazol-5-yl)biphenyl-4-yl]-1-(3-methylphenyl) cyclopropane-carboxamide] and `CCCc1cccc(C2(C(=O)Nc3ccc(-c4ccc(OC)c(OC)c4)c(-c4nnn[nH]4)c3)CC2)c1` [Example 41, N-[3′,4′-dimethoxy-2-(1H-tetrazol-5-yl)biphenyl-4-yl]-1-(3-propylpheny) cyclopropane-carboxamide] are within 1.5-fold of each other in IC50: 80.3 nM for the first, 92 nM for the second.

`CCOc1ccc(-c2ccc(NC(=O)C3(c4ccc(Cl)cn4)CC3)cc2-c2nnn[nH]2)cn1` [Example 85, 1-(5-chloropyridin-2-yl)-N-[4-(6-ethoxypyridin-3-yl)-3-(1H-tetrazol-5-yl)phenyl] cyclopropane-carboxamide] and `CCOc1ccc(-c2ccc(NC(=O)C3(c4cccc(F)c4Cl)CC3)cc2-c2nnn[nH]2)cn1` [Example 106, 1-(2-chloro-3-fluorophenyl)-N-[4-(6-ethoxypyridin-3-yl)-3-(1H-tetrazol-5-yl)phenyl] cyclopropane-carboxamide] are within 1.5-fold of each other in IC50: 63.1 nM for the first, 56 nM for the second.

First: COc1ccc(-c2ccc(NC(=O)C3(c4cccc(F)c4F)CC3)cc2-c2nnn[nH]2)cc1OC [Example 26, 1-(2,3-difluorophenyl)-N-[3′,4′-dimethoxy-2-(1H-tetrazol-5-yl)biphenyl-4-yl]cyclopropane carboxamide]
Second: COc1ccc(-c2ccc(NC(=O)C3(c4cc(F)ccc4Cl)CC3)cc2-c2nnn[nH]2)cc1OC [Example 30, 1-(2-chloro-5-fluorophenyl)-N-[3′,4′-dimethoxy-2-(1H-tetrazol-5-yl)biphenyl-4-yl]cyclopropane carboxamide]
The IC50 of the first is 2.2-fold lower: 91.7 nM for the first, 201 nM for the second.

First: N#Cc1ccc(-c2ccc(NC(=O)C3(c4cccc(Cl)c4)CC3)cc2-c2nnn[nH]2)cn1 [Example 323, 1-(3-chlorophenyl)-N-[4-(6-cyanopyridin-3-yl)-3-(1H-tetrazol-5-yl)phenyl]cyclopro-panecarboxa-mide]
Second: N#Cc1cncc(-c2ccc(NC(=O)C3(c4cccc(Cl)c4)CC3)cc2-c2nnn[nH]2)c1 [Example 336, 1-(3-chlorophenyl)-N-[4-(5-cyanopyridin-3-yl)-3-(1H-tetrazol-5-yl)phenyl]cyclopro-panecarboxa-mide]
The IC50 of the first is 3.7-fold lower: 355 nM for the first, 1320 nM for the second.

Going from `COc1ccc(-c2ccc(NC(=O)C3(c4cccc(Cl)c4)CCC3)cc2-c2nnn[nH]2)cc1OC` [Example 62, 1-(3-chlorophenyl)-N-[3′,4′-dimethoxy-2-(1H-tetrazol-5-yl)biphenyl-4-yl]cyclobutane-carboxamide] to `COc1ccc(-c2ccc(NC(=O)C3(c4cc(F)cc(Cl)c4)CC3)cc2-c2nnn[nH]2)cc1OC` [Example 15, 1-(3-chloro-5-fluorophenyl)-N-[3′,4′-dimethoxy-2-(1H-tetrazol-5-yl)biphenyl-4-yl]cyclopropane carboxamide], the IC50 falls from 2430 nM to 40.9 nM (59-fold). The second is the more potent here.

First: CCOc1ccc(-c2ccc(NC(=O)C3(c4ccccc4Cl)CC3)cc2-c2nnn[nH]2)cn1 [Example 93, 1-(2-chlorophenyl)-N-[4-(6-ethoxypyridin-3-yl)-3-(1H-tetrazol-5-yl)phenyl] cyclopropane-carboxamide]
Second: Cc1ncc(-c2ccc(NC(=O)C3(c4cccc(Cl)c4)CC3)cc2-c2nnn[nH]2)cn1 [Example 194, 1-(3-chlorophenyl)-N-[4-(2-methylpyrimidin-5-yl)-3-(1H-tetrazol-5-yl)phenyl] cyclopropane-carboxamide]
The IC50 of the first is 15-fold lower: 37.1 nM for the first, 575 nM for the second. The first is the more potent here.

`CCOc1ncc(-c2ccc(NC(=O)C3(c4ccc(C(F)(F)F)cc4)CC3)cc2-c2nnn[nH]2)cc1C` [Example 161, N-[4-(6-ethoxy-5-methylpyridin-3-yl)-3-(1H-tetrazol-5-yl)phenyl]-1-[4-(trifluoromethyl)phenyl] cyclopropane-carboxamide] and `CCc1ccc(C2(C(=O)Nc3ccc(-c4ccc(OC)c(OC)c4)c(-c4nnn[nH]4)c3)CC2)cc1` [Example 57, N-[3′,4′-dimethoxy-2-(1H-tetrazol-5-yl)biphenyl-4-yl]-1-(4-ethylphenyl) cyclopropane-carboxamide] are within 1.5-fold of each other in IC50: 24.9 nM for the first, 36.6 nM for the second.
